These results are taken from paper PMC4466645 (Oncotarget, 2015).

In test [1] the test system is Erk1/2, Akt and Stat6 phosphorylation. In words: Downstream signaling immunoblot in Mer expressing cell lines. In kind it is cell-based. The following applies: two hour treatment. Here is the method:
Whole cell lysates were prepared and proteins were resolved on Tris-Glycine SDS-PAGE gels (Invitrogen) and transferred onto nitrocellulose membranes. Membranes were blocked in tris-buffered saline with 0.1% Tween-20 containing 5% bovine serum albumin (when probing for Flt3) or 5% milk (when probing for all other molecules). For immunoprecipitation assays, cells were plated and treated as above, then treated with pervanadate for 10 minutes prior to cell lysis to stabilize the phosphorylation status. With the use of pervandate, it was not necessary to stimulate cells with exogenous Mer or Flt3 ligands (other than from fetal bovine serum) to detect phosphorylated Mer and Flt3 proteins. Anti-Mer antibody or anti-Flt3 and rec-Protein G-sepharose beads (Invitrogen) were added and lysates were incubated overnight on a rocking platform. Beads were washed and eluted proteins were resolved as above. Immunoprecipitate membranes were probed with an anti-phospho-Mer or anti-phospho-Flt3 antibody. After visualization, membranes were stripped and reprobed for total protein. The following antibodies were used according to manufacturer recommendations: anti-Mer (ab52968, AbCam); anti-phospho-Mer (Phosphosolutions Inc.); anti-Flt3 (sc-480), anti-Actin (sc-1616), anti-pan-Trk (sc-11), donkey-anti-goat IgG-HRP (sc-2020) (Santa Cruz Biotechnology); anti-phospho-Flt3 (#3461), anti-phospho-Stat6 (Tyr641, #9364), anti-Stat6, (#9362), anti-phospho-Stat5 (Tyr694, #9359), anti-Stat5 (#9358), anti-phospho-AKT (Ser473, #9271L), anti-AKT (#9272), anti-phospho-p44/42-MAPK (ERK1/2, Thr202/Tyr204, #9106), anti-p44/42-MAPK (#9102), anti-PARP (#9542), anti-Caspase-3 (#9665), anti-Tyro-3 (#5585) (Cell Signaling Technology); anti-Axl (AF154, R&D Systems); goat-anti-mouse IgG-HRP, goat-anti-rabbit IgG-HRP (BioRad). Proteins were visualized by horseradish peroxidase chemiluminescence detection (Perkin-Elmer).
In general terms: Immunoblotting shows a protein as a band on a membrane.

The subject of test [2] is AML cell lines. Kind of test: Cell cycle analysis (propidium iodide, ModFit) in AML cell lines. The settings on record: significant at the 300 nM dose, 72 hours.
Method: (§1) To assess apoptosis, AML cell lines were cultured at 3 × 10^5 cells, and 1 × 10^6 AML patient blasts were co-cultured with 3.5 × 10^5 HS27 cells per condition in 24 well plates, and treated for 72 hours. […] Flow cytometry data were analyzed using Modfit Cell Cycle Analysis software (Verity Software House). In replating assays, cells were similarly plated and treated, then harvested cells were washed twice, and 1.5 × 10^4 viable cells/ml were cultured in cRPMI for six days. Six days after replating, viable myeloblast count was determined by trypan blue exclusion using a Cedex XS Analyzer (Roche).
The subject of test [3] is Mer-expressing cell lines. In words: Apoptosis by flow cytometry, Mer-expressing cell lines. The following applies: 72 hours, range over Mer-expressing cell lines. On the technique in general: In flow cytometry, cells or beads pass a laser one at a time.
Method: as §1
In test [4] the target is T1, TrkA (Homo sapiens, UniProt P04629). In words: Protein kinase profiling panel (Carna Biosciences), TRKA. The settings on record: read-out: Percent Inhibition at 46 nM, TRKA.
T1 sequence (P04629 33-796): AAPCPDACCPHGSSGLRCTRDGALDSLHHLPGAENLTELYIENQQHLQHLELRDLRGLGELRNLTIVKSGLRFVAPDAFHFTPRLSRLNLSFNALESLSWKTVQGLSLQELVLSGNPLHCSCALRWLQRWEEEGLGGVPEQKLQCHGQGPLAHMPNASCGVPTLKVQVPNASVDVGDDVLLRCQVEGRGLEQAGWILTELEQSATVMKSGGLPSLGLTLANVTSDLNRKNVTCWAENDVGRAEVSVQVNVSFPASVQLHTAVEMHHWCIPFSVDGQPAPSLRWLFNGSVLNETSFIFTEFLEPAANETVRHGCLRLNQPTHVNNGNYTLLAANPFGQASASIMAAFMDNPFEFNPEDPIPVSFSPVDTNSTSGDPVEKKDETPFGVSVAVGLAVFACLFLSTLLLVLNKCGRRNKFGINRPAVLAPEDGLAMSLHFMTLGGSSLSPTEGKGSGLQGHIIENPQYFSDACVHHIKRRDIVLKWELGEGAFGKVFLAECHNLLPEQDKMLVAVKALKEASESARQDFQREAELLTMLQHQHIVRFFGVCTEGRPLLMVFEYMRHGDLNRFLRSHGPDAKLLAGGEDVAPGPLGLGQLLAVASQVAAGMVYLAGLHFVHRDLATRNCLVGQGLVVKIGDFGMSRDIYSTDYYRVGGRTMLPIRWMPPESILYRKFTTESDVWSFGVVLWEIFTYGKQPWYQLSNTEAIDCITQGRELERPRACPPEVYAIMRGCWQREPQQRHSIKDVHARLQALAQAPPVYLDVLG
Test [5] has as its system MOLM-13 cell line. Kind of test: Apoptosis by flow cytometry (YO-PRO-1 iodide / propidium iodide), MOLM-13. The following applies: MOLM-13, 300 nM, 72 hours; vehicle 8 ± 1%.
Method: as §1
For test [6], the system named is AML cell lines expressing Mer or Flt3 internal tandem duplication (ITD). In words: Apoptosis by flow cytometry, AML cell lines expressing Mer or Flt3-ITD (all lines together). The settings on record: maximum over cell lines, compared to vehicle.
In test [7] the test system is Erk1/2, Akt and Stat5 phosphorylation. In words: Downstream signaling immunoblot in Flt3-ITD cell lines. The format is cell-based. The settings on record: 50 nM, two hour treatment. Here is the method:
Whole cell lysates were prepared and proteins were resolved on Tris-Glycine SDS-PAGE gels (Invitrogen) and transferred onto nitrocellulose membranes. Membranes were blocked in tris-buffered saline with 0.1% Tween-20 containing 5% bovine serum albumin (when probing for Flt3) or 5% milk (when probing for all other molecules). For immunoprecipitation assays, cells were plated and treated as above, then treated with pervanadate for 10 minutes prior to cell lysis to stabilize the phosphorylation status. With the use of pervandate, it was not necessary to stimulate cells with exogenous Mer or Flt3 ligands (other than from fetal bovine serum) to detect phosphorylated Mer and Flt3 proteins. Anti-Mer antibody or anti-Flt3 and rec-Protein G-sepharose beads (Invitrogen) were added and lysates were incubated overnight on a rocking platform. Beads were washed and eluted proteins were resolved as above. Immunoprecipitate membranes were probed with an anti-phospho-Mer or anti-phospho-Flt3 antibody. After visualization, membranes were stripped and reprobed for total protein. […]

Test [8] has as its target TRKB (Homo sapiens, UniProt Q16620). In words: Protein kinase profiling panel (Carna Biosciences), TRKB. The settings on record: read-out: Percent Inhibition at 46 nM, TRKB.
For test [9], the system named is Flt3-ITD cell lines. Kind of test: Apoptosis by flow cytometry, Flt3-ITD cell lines. The settings on record: 72 hours, range over Flt3-ITD cell lines. The format is cell-based. The procedure: To assess apoptosis, AML cell lines were cultured at 3 × 10^5 cells, and 1 × 10^6 AML patient blasts were co-cultured with 3.5 × 10^5 HS27 cells per condition in 24 well plates, and treated for 72 hours. Harvested cells were washed, resuspended in PBS containing 1 μM YO-PRO®-1 iodide (Invitrogen) and 1.5 μM propidium iodide (PI) (Invitrogen), and incubated on ice for 15–20 minutes. […] . Flow cytometry data were analyzed using Modfit Cell Cycle Analysis software (Verity Software House). In replating assays, cells were similarly plated and treated, then harvested cells were washed twice, and 1.5 × 10^4 viable cells/ml were cultured in cRPMI for six days. Six days after replating, viable myeloblast count was determined by trypan blue exclusion using a Cedex XS Analyzer (Roche).

The target in test [10] is TRKC (Homo sapiens, UniProt Q16288). Kind of test: Protein kinase profiling panel (Carna Biosciences), TRKC. The following applies: read-out: Percent Inhibition at 46 nM, TRKC.
Sequence of TRKC (Q16288 32-839): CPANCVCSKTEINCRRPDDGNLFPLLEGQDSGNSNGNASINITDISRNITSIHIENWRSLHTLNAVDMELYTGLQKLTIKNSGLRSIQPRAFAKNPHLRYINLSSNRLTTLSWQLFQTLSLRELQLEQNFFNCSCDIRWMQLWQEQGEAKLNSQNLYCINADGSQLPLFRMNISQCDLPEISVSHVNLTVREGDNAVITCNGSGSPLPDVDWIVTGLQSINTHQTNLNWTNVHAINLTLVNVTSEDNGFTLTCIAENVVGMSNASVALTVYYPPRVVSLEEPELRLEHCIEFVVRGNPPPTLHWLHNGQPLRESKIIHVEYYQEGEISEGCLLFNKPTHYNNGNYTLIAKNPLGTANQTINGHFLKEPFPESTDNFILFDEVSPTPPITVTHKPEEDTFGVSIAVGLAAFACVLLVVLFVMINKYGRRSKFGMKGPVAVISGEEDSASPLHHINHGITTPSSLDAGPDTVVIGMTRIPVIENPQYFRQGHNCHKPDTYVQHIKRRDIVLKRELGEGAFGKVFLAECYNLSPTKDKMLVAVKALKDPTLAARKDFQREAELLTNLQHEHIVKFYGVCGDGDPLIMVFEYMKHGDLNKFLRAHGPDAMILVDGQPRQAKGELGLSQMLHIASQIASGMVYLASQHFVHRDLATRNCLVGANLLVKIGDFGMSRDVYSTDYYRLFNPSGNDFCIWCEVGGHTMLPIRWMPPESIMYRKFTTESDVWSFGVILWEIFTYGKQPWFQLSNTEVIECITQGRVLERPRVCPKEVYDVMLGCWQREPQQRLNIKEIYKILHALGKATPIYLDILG
In test [11] the target is T1, TrkA. Kind of test: Microfluidic capillary electrophoresis (MCE) enzymatic assay, TrkA.
Method: Microfluidic capillary electrophoresis (MCE) enzyme (40 μL, 4 nM Mer) and allowed to incubate for
assay 10 min followed by addition of 32 μL of substrate mix
polypropylene microplate with a final volume of 50μL in reads total, on an EZReader, using upstream voltage =
50mM Hepes, pH 7.4 containing 10mM MgCl2, 1.0 mM −2250V, downstream voltage = −500V and pressure =
DTT, 0.01% Triton X-100, 0.1% bovine serum albumin −1.0 psi (sip time 0.2 sec, buffer 30 sec). The steady-state
(BSA) (MCE Buffer), with 1.0 μM fluorescent substrate velocity was analyzed by linear regression of the peptide
and ATP at Km for each enzyme (Supplemental Table 1). as percent-conversion/min, and a plot of nM compound
70 mM EDTA. Phosphorylated and unphosphorylated using GraphPad Prism (v5.01, GraphPad Software), Y =
Reader software. velocity, X = inhibitor concentration).
Morrison Tight-Binding Method (35).
2.0 nM Mer, and 1.0 μM peptide substrate.
Test [12] has as its system Kasumi-1 cell line. In words: Apoptosis by flow cytometry (YO-PRO-1 iodide / propidium iodide), Kasumi-1. The settings on record: Kasumi-1, 300 nM, 72 hour; vehicle 30 ± 7%.
Method: as §1
Test [13] concerns MV4;11. Kind of test: Soft agar colony formation assay, MV4;11. The format is cell-based. The settings on record: MV4;11, 50 nM, 14 days, normalized to vehicle. The procedure:
Cell lines were plated at a density of 1000 cells/ml in 0.35% agar over 0.5% agar base layer. […] Colonies were grown for 14 (NOMO-1, MV4;11, MOLM-13) or 21 days (Kasumi-1) prior to staining with 1 mg/ml nitrotetrazolium blue (Sigma-Aldrich). Treatment-containing medium was renewed twice weekly. […] Human mononuclear cells were isolated from umbilical cord blood samples using Ficoll-Paque PLUS (GE Healthcare Life Sciences). […] Cell line and patient sample colonies were counted using a GelCount colony counter (Oxford Optronix) and cord blood colonies were manually counted in a blinded, non-biased manner.

Sequence of TRKB (Q16620 32-822): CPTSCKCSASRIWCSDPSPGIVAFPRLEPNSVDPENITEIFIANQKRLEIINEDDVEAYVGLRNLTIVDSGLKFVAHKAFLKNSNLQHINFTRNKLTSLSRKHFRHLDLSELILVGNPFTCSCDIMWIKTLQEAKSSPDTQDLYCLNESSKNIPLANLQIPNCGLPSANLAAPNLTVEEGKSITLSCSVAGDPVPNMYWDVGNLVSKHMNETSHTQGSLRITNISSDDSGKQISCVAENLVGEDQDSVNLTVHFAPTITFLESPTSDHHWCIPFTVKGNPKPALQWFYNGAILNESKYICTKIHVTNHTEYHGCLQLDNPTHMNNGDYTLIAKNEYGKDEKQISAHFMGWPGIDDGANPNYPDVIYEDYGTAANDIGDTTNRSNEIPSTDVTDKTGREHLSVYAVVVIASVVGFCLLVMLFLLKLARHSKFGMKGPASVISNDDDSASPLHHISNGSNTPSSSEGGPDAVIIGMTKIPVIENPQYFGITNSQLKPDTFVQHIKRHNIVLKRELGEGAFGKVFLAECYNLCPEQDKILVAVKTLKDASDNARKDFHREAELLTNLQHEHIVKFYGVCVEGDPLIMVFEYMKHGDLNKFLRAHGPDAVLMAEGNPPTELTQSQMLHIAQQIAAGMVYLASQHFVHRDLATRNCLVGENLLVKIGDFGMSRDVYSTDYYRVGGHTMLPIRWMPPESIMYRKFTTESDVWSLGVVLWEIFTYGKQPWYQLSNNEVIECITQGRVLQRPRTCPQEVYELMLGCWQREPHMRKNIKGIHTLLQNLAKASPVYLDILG

With `CCCCNc1ncc2c(-c3ccc(S(=O)(=O)N4CCOCC4)cc3)cn([C@H]3CC[C@H](O)CC3)c2n1` [UNC1666], the “Erk1/2, Akt and Stat6 phosphorylation” value is “diminished phosphorylation” in test [1] (50 nM), “moderate decrease” in test [1] (100 nM) and “more complete inhibition” in test [1] (300 nM). In addition, the “Cell cycle effect (in words)” value in test [2] is “accumulation of cells in G2M phase”. In addition, the “Induction of apoptosis, % of cells” value was 50–67% in test [3] (100 nM), 68–76% in [3] (300 nM) and “up to 98%” in [6]. For the same molecule, the inhibition (in general, the drop in the measured response relative to a control, in per cent) at 0.046 µM in test [4] turned out to be 101%; in [8], 95%; in [10] it was 98%. Also, in test [5], the “Apoptosis (cells apoptotic or dead)” value worked out at 98 ± 2%. Further, the “Erk1/2, Akt and Stat5 phosphorylation” value in test [7] is “near complete ablation of phosphorylation”. Further, the entries for the “Cells apoptotic or dead” value in test [9] (50 nM), in test [9] (300 nM) and in test [12] were 54–67%, 90–98% and 76 ± 8%, respectively. Also, in [11], the IC50 (usually the concentration at which inhibition is half-maximal) is 0.57 nM. In test [13], this molecule showed a Reduction in colonies of 61 ± 22%.
